# Legend:
# CCR2 / MCP1 = test: Effects of treatment on CCR2 expression and circulating MCP1; type: in vivo
# Text: The treatment methods described herein may involve treating patient subsets having elevated MCP1 (monocyte chemoattractant protein 1, or sometimes referred to as CCL2, which is CC chemokine receptor 2 ligand). CC chemokine receptor 2 (CCR2) is the receptor for MCP1. […] These effects are consistent with biological responses that correspond to reduced progression and/or at least partial reversal of cardiovascular plaque accumulation. That provides a basis for treating, e.g., slowing the progression, of arteriosclerosis and atherosclerosis. Such treatments would be effective in patients having a dyslipidemia such as hypercholesterolemia and/or hypertriglyceridemia with or without also having an arteriosclerosis condition such as atherosclerosis. Such patients will preferably have BMI and fasting plasma insulin levels as described in the embodiments described below (e.g., in embodiment 1, 9, 10, 17 or 19), examples or original claims, e.g., a BMI of ≧28 and insulin of ≧4 μU/mL. Any of these patients may also have hyperglycemia or overt diabetes. Patients with elevated MCP1 are also treatable for preventing or reducing the severity of cardiovascular disease, including myocardial infarction.
# [1] = Blood levels after oral immediate release formulations; type: in vivo, human; settings: for serum levels remained at or above: entire day
# Method: Blood levels of 17α-ethynylandrost-5-ene-3β,7β,17β-triol were determined in adult patients dosed with a range of dosages as oral immediate release formulations. The formulations were essentially as described in example 3, with capsules containing 1 mg/capsule, 5 mg/capsule, 10 mg/capsule, 25 mg/capsule or 50 mg/capsule. These unit doses were filled into hard gelatin capsules (size #1 for […] doses; size #2 for the 1 and 5 mg doses) and micronized compound (D90˜[…]) was used.
# Two capsules containing 1 mg of 17α-ethynylandrost-5-ene-3β,7β,17β-triol were administered twice per day to patients receiving a 4 mg/day total dose. […] Blood levels of the compound were at or above about 0.5 ng/mL for over 2 hours/day. […] In other patients receiving 4 mg/day for 28 days, there was a lower degree of response than patients receiving higher doses and 4 mg/day was considered to be the minimal effective dose.
# Analysis of some of the evaluable patients from example 1 gave the following results. […] Drug exposure over 24 hours (AUC0-24) in patients receiving 10 mg/day (5 mg twice per day) ranged from 15.7 ng·hr/mL to 190 ng·hr/mL and from 72 ng·hr/mL to 198 ng·hr/mL in patients receiving 20 mg/day (10 mg twice per day). Drug exposure in patients receiving 40 mg/day (20 mg twice per day) ranged from 60 ng·hr/mL to 209 ng·hr/mL.
# [2] = tested on: pre-diabetic hyperglycemic patients and patients having type 2 diabetes; test: Glucose clamp (M value) in 28-day clinical trial of oral capsules; type: in vivo, human
# Method: Groups of pre-diabetic hyperglycemic patients and patients having type 2 diabetes were treated for 28 days with the experimental drug 17α-ethynylandrost-5-ene-3β,7β,17β-triol (oral capsules) or with placebo. […] Placebos were obtained with each treatment cohort based on protocol randomization of 2 treated:1 placebo. The pre-diabetic patients were obese (body mass index ≧29 kg/m^2) and glucose intolerant (fasting plasma glucose <126 mg/dL; 2-hr post prandial glucose 140-200 mg/dL after 75 g oral glucose). The diabetic patients were dosed with 10 mg/day for 28 days (n=6; cohort 6). […] Patients with an M value of <5 mg glucose/kg/min (M<5) were considered insulin resistant and patients with an M value of >5 mg glucose/kg/min (M>5) were considered insulin sensitive or essentially normal for whole body glucose metabolism.
# The analysis of responders used standard analysis. Due to the cohort sizes and the ongoing basis of this clinical protocol, data for surrogates that corresponded to significance at p≦0.10 (trend) were considered positive evidence of surrogacy of the biomarker for the M<5 insulin resistant condition.
# type 2 diabetes patients = test: Phase 2 monotherapy protocol in treatment naive type 2 diabetes patients; type: in vivo, human
# Method: A phase 2 clinical treatment protocol was conducted in type 2 diabetes patients using a monotherapy consisting of 17α-ethynylandrost-5-ene-3β,7β,17β-triol. The patients had not been treated with another antidiabetic agent or any insulin sensitizer such as metformin for at least 90 days before the start of dosing. […] The patients (n=51) received 10 mg/day of 17α-ethynylandrost-5-ene-3β,7β,17β-triol (5 mg twice per day) for 84 days and were then followed until day 112. Effects of treatment were examined in subsets of patients having differing BMI values.
# [3] = 2 mg twice per day (4 mg/day), n=2
structure (smiles),measurement,setting,value
"C#C[C@]1(O)CC[C@H]2[C@@H]3[C@@H](O)C=C4C[C@@H](O)CC[C@]4(C)[C@H]3CC[C@@]21C [17α-ethynylandrost-5-ene-3β,7β,17β-triol]",expression levels of CCR2,CCR2 / MCP1; in vivo,decrease
same,MCP1 in circulation,"CCR2 / MCP1; typically protein levels in serum, e.g. ELISA",trend to decrease
same,time with blood levels at or above about 0.5 ng/mL,[1]; 2 mg twice per day,over 2 hours/day
same,peak blood levels,[1]; [3],1 to 2 ng/mL
same,time of peak blood levels after dosing,[1]; [3],2 to 3 h
same,blood levels maintained,"[1]; 2 mg twice per day, for over 2 hours/day",≥ 0.5 ng/mL
same,peak serum levels,"[1]; 10 mg twice per day (20 mg/day on a single day), n=2",10 to 30 ng/mL
same,serum levels remained at or above,[1]; 10 mg twice per day,≥ 3 ng/mL
same,serum levels remained at or above,[1]; 25 mg twice per day,≥ 3 ng/mL
same,peak serum levels,"[1]; 50 mg twice per day (100 mg/day), n=2",80 to 150 ng/mL
same,serum levels remained at or above,[1]; 50 mg twice per day (100 mg/day),≥ 10 ng/mL
same,induction of cytochromes (liver enzymes),[1]; 100 mg/day dose level,not observed
same,fasted Cmax lower compared to patients dosed after a meal,[1]; fasted vs fed status,up to 60%
same,mean Cmax,"[1]; females (n=3), 20 mg/day (10 mg twice per day)",13.8 ng/mL
same,Cmax levels in females vs males,[1]; in vivo,sometimes higher
same,"total drug exposure levels, adult females vs adult males",[1]; in vivo,somewhat higher
same,mean Cmax,"[1]; males (n=4), 20 mg/day (10 mg twice per day)",15.1 ng/mL
same,mean Cmax,"[1]; pre-diabetic hyperglycemic females (n=6), 10 mg per day (5 mg twice per day)",11.2 ng/mL
same,mean Cmax,"[1]; pre-diabetic hyperglycemic males (n=2), 10 mg per day (5 mg twice per day)",3.8 ng/mL
same,mean Cmax,"[1]; rheumatoid arthritis patients, females (n=6), 40 mg/day (20 mg twice per day)",27.4 ng/mL
same,mean Cmax,"[1]; rheumatoid arthritis patients, males (n=2), 40 mg/day (20 mg twice per day)",43.7 ng/mL
same,minimal effective dose,"[2]; 28 days, lower degree of response than higher doses",4 mg/day
same,change in M value,"[2]; interim analysis, M<5, two patients treated with 20 mg/day",increased
same,change in M value,"[2]; interim analysis, M<5 patients, 10 mg/day (5 mg twice per day) vs placebo, p=0.0286",significantly increased
same,change in M value,"[2]; interim analysis, M<5 patients, pooled 10 mg/day or 20 mg/day vs placebo, p=0.0095",significantly increased
same,change in M value,"[2]; interim analysis, M>5 patients, 10 mg/day, 20 mg/day or pooled vs placebo",no statistically significant difference
same,change in M value,"[2]; interim analysis, overall protocol, 20 mg/day group, p=0.0823",trends to significance
same,change in M value,"[2]; interim analysis, overall protocol, 'mg/day group', p=0.0513",trends to significance
same,change in M value,"[2]; interim analysis, overall protocol, pooled patients, p=0.0278",significantly increased
same,M value (glucose control),"[2]; one pre-diabetic hyperglycemic patient, 28 days of dosing 4 mg/day",increased
same,effectiveness of treatment by M value subgroup,[2]; pre-diabetic hyperglycemic patients having M<5,most effective
same,change in M value,"[2]; second interim analysis, M<5, 10 mg/day vs placebo, p=0.002",significantly increased
same,change in M value,"[2]; second interim analysis, M<5, pooled 10 mg/day or 20 mg/day vs placebo, p=0.0007",highly significant positive change
same,change in M value,"[2]; second interim analysis, M>5 patients, 10 mg/day, 20 mg/day or pooled vs placebo",no statistically significant difference
same,change in M value,"[2]; second interim analysis, overall protocol, 10 mg/day group, p=0.04",significantly increased
same,change in M value,"[2]; second interim analysis, overall protocol, 20 mg/day group, p=0.04",significantly increased
same,change in M value,"[2]; second interim analysis, overall protocol, pooled patients, p=0.0109",significantly increased
same,C-reactive protein,"type 2 diabetes patients; BMI greater than 31.3 kg/m^2, day 57, p=0.053",trend to decreased
same,patients with decreased HbA1c to <7%,"type 2 diabetes patients; BMI greater than 31.3 kg/m^2, day 84, placebo 0/14",2/9
same,decreases in serum MCP-1,"type 2 diabetes patients; BMI greater than 31.3 kg/m^2, days 29, 57 and 84",> 600 pg/mL
same,observed effects in lower BMI subset,type 2 diabetes patients; patients having a BMI of less than about 31,less pronounced
same,HbA1c decrease,"type 2 diabetes patients; patients with BMI greater than 31.3 kg/m^2 (n=22), 10 mg/day for 84 days, day 112, p=0.041",1.1%

# From patent publication US20100227841A1, “Patient populations and treatment methods” (Harbor BioSciencs, Inc., priority 2008, published 2010)
